Converted amounts (≈) assume the structure as drawn.
Experiments:
Assay in all cases: In vitro antibacterial evaluation: minimum inhibitory concentration (MIC), broth dilution method
Type in all cases: cell-based
Streptococcus sp. = details: broth dilution, 5×10^5 CFU/mL, 18 hours at 35° C.
Procedure: (§1) The minimum inhibitory concentration (MIC), the lowest concentration of the antibiotic which inhibits growth of the test organism, is determined by the broth dilution method using Muller-Hinton II […] (Baltimore Biological Laboratories) following the recommendations of the National Committee for Clinical Laboratory Standards [Methods for dilution antimicrobial susceptibility tests for bacteria that grow aerobically, approved standard M7-A2, National Committee for Clinical Laboratory Standards, Villanova, Pa].
(§2) An inoculum level of 5×10^5 CFU/mL, and a range of antibiotic concentrations (64-0.06 μg/mL) is used. […] The test organisms include a spectrum of Gram-positive bacteria comprised of Staphylococcus sp., Streptococcus sp. and Enterococcus sp. These organisms include recent clinical isolates that are resistant to methicillin, penicillin and/or vancomycin.

Enterococcus sp. = details: broth dilution, 5×10^5 CFU/mL, 18 hours at 35° C.
Procedure: as §1, §2

Escherichia coli = details: 5×10^5 CFU/mL, 18 hours at 35° C.
Procedure: as §1, §2

Staphylococcus sp. = details: for MIC Staphylococcus aureus (ATCC 29213): strain ATCC 29213; for MIC Staphylococcus aureus (GC 1131): strain GC 1131; for MIC Staphylococcus aureus (GC 3051): strain GC 3051; for MIC Staphylococcus aureus (GC 3053): strain GC 3053; for MIC Staphylococcus aureus (GC 4541): strain GC 4541; for MIC Staphylococcus aureus (GC 4542): strain GC 4542; for MIC Staphylococcus aureus (GC 4544): strain GC 4544; for MIC Staphylococcus aureus (GC 4545): strain GC 4545
Procedure: as §1, §2

[1] = broth dilution, 5×10^5 CFU/mL, 18 hours at 35° C.
[2] = broth dilution, 18 hours at 35° C.

MIC Streptococcus agalactiae (GC 4564) (Streptococcus sp.): 0.5 µg/mL (≈ 0.36 µM)
MIC Streptococcus pneumoniae (GC 1894) (Streptococcus sp.): 0.12 µg/mL (≈ 0.0864 µM)
MIC Streptococcus pneumoniae (GC 4565) (Streptococcus sp.): 0.25 µg/mL (≈ 0.18 µM)
MIC Streptococcus pneumonine (ATCC 6301) (Streptococcus sp.): 0.25 µg/mL (≈ 0.18 µM)
MIC Streptococcus pyogenes (GC 4563) (Streptococcus sp.): 0.5 µg/mL (≈ 0.36 µM)
MIC Enterococccus avium (GC 4558) (Enterococcus sp.): 16 µg/mL (≈ 11.5 µM)
MIC Enterococccus faecalis (ATCC 29212) (Enterococcus sp.): 8 µg/mL (≈ 5.76 µM)
MIC Enterococccus faecalis (GC 2691) (Enterococcus sp.): 8 µg/mL (≈ 5.76 µM)
MIC Enterococccus faecalis (GC 3059) (Enterococcus sp.): 16 µg/mL (≈ 11.5 µM)
MIC Enterococccus faecalis (GC 4552) (Enterococcus sp.): 8 µg/mL (≈ 5.76 µM)
MIC Enterococccus faecalis (GC 4553) (Enterococcus sp.): 16 µg/mL (≈ 11.5 µM)
MIC Enterococccus faecalis (GC 4554) (Enterococcus sp.): 8 µg/mL (≈ 5.76 µM)
MIC Enterococccus faecalis (GC 6189) (Enterococcus sp.): 8 µg/mL (≈ 5.76 µM)
MIC Enterococccus faecium (GC 2243) (Enterococcus sp.): 8 µg/mL (≈ 5.76 µM)
MIC Enterococccus faecium (GC 4556) (Enterococcus sp.): 8 µg/mL (≈ 5.76 µM)
MIC Enterococccus faecium (GC 4557) (Enterococcus sp.): 4 µg/mL (≈ 2.88 µM)
MIC Enterococcus faecalis (GC 2242) (Enterococcus sp.): 8 µg/mL (≈ 5.76 µM)
MIC Escherichia coli (ATCC 25922) (Escherichia coli): >64 µg/mL
MIC Escherichia coli (GC 4559) (Escherichia coli): 32 µg/mL (≈ 23 µM)
MIC Escherichia coli (GC 4560) (Escherichia coli): 1 µg/mL (≈ 0.72 µM)
MIC Coagulase Negative Staphylococcus (GC 4547) (Staphylococcus sp.; [1]): 2 µg/mL (≈ 1.44 µM)
MIC Coagulase Negative Staphylococcus (GC 4548) (Staphylococcus sp.; [1]): 1 µg/mL (≈ 0.72 µM)
MIC Coagulase Negative Staphylococcus (GC 4549) (Staphylococcus sp.; [1]): 1 µg/mL (≈ 0.72 µM)
MIC Coagulase Negative Staphylococcus (GC 4551) (Staphylococcus sp.; [1]): 2 µg/mL (≈ 1.44 µM)
MIC Coagulase Negative Staphylococcus (GC 6257) (Staphylococcus sp.; [1]): 1 µg/mL (≈ 0.72 µM)
MIC Staphylococcus aureus-SMITH (GC 4543) (Staphylococcus sp.; [1]): 2 µg/mL (≈ 1.44 µM)
MIC Staphylococcus aureus (ATCC 29213) (Staphylococcus sp.): 4 µg/mL (≈ 2.88 µM)
MIC Staphylococcus aureus (ATCC 29213) (Staphylococcus sp.; [2]): 4 µg/mL (≈ 2.88 µM)
MIC Staphylococcus aureus (GC 1131) (Staphylococcus sp.): 2 µg/mL (≈ 1.44 µM)
MIC Staphylococcus aureus (GC 1131) (Staphylococcus sp.; [2]): 2 µg/mL (≈ 1.44 µM)
MIC Staphylococcus aureus (GC 3051) (Staphylococcus sp.): 2 µg/mL (≈ 1.44 µM)
MIC Staphylococcus aureus (GC 3051) (Staphylococcus sp.; [2]): 2 µg/mL (≈ 1.44 µM)
MIC Staphylococcus aureus (GC 3053) (Staphylococcus sp.): 4 µg/mL (≈ 2.88 µM)
MIC Staphylococcus aureus (GC 3053) (Staphylococcus sp.; [2]): 4 µg/mL (≈ 2.88 µM)
MIC Staphylococcus aureus (GC 4541) (Staphylococcus sp.): 2 µg/mL (≈ 1.44 µM)
MIC Staphylococcus aureus (GC 4541) (Staphylococcus sp.; [2]): 2 µg/mL (≈ 1.44 µM)
MIC Staphylococcus aureus (GC 4542) (Staphylococcus sp.): 2 µg/mL (≈ 1.44 µM)
MIC Staphylococcus aureus (GC 4542) (Staphylococcus sp.; [2]): 2 µg/mL (≈ 1.44 µM)
MIC Staphylococcus aureus-SMITH (GC 4543) (Staphylococcus sp.; strain GC 4543, broth dilution, 18 hours at 35° C.): 2 µg/mL (≈ 1.44 µM)
MIC Staphylococcus aureus (GC 4544) (Staphylococcus sp.): 4 µg/mL (≈ 2.88 µM)
MIC Staphylococcus aureus (GC 4544) (Staphylococcus sp.; [2]): 4 µg/mL (≈ 2.88 µM)
MIC Staphylococcus aureus (GC 4545) (Staphylococcus sp.): 2 µg/mL (≈ 1.44 µM)
MIC Staphylococcus aureus (GC 4545) (Staphylococcus sp.; [2]): 2 µg/mL (≈ 1.44 µM)
MIC Coagulase Negative Staphylococcus (GC 4547) (Staphylococcus sp.; strain GC 4547, broth dilution, 18 hours at 35° C.): 2 µg/mL (≈ 1.44 µM)
MIC Coagulase Negative Staphylococcus (GC 4548) (Staphylococcus sp.; strain GC 4548, broth dilution, 18 hours at 35° C.): 1 µg/mL (≈ 0.72 µM)
MIC Coagulase Negative Staphylococcus (GC 4549) (Staphylococcus sp.; strain GC 4549, broth dilution, 18 hours at 35° C.): 1 µg/mL (≈ 0.72 µM)
MIC Coagulase Negative Staphylococcus (GC 4551) (Staphylococcus sp.; strain GC 4551, broth dilution, 18 hours at 35° C.): 2 µg/mL (≈ 1.44 µM)
MIC Coagulase Negative Staphylococcus (GC 6257) (Staphylococcus sp.; strain GC 6257, broth dilution, 18 hours at 35° C.): 1 µg/mL (≈ 0.72 µM)
Compound: CC(c1ccccc1)C1NC(=O)CNC(=O)C(CO)NC(=O)C(C(O)C2CNC(=N)N2C2OC(CO)C(O)C(O)C2O)NC(=O)C(C(O)C2CNC(=N)N2)NC(=O)C(Cc2ccc(OC3OC(CO)C(OC4OC5COC(c6cccs6)OC5C(O)C4O)C(O)C3O)cc2)NC1=O (stereo not drawn) [Example 132, Cyclo[glycyl-β-methylphenylalanyl-O-[4-O-[4,6-O-(2-thienylmethylene)hexopyranosyl]-hexopyranosyl]tyrosyl-3-(2-iminoimidazolidin-4-yl)seryl-3-(3-hexopyranosyl-2-iminoimidazolidin-4-yl)serylseryl]]
MIC Staphylococcus haemolyticus (GC 4546) (Staphylococcus sp.; [1]): 1 µg/mL (≈ 0.72 µM)
MIC Staphylococcus haemolyticus (GC 4546) (Staphylococcus sp.; strain GC 4546, broth dilution, 18 hours at 35° C.): 1 µg/mL (≈ 0.72 µM)

From patent publication US8247211B2, “Glycopeptide antibiotics” (American Cyanamid Company, priority 2001, dated 2012)
